Here are results for 8 compounds from patent publication US11406631B2, “Hydrazone derivatives for preventing or treating EBV-related cancers” (Universite de Bretagne Occidentale, priority 2018, dated 2022).

The target in one assay is G4-RNA EBNA1. The assay is described as follows: HT-G4-FID assay: Thiazole Orange displacement from G4-RNA. The following applies: for DC50: K+-100 buffer, pH 7.3, triplicate assays; for affinity for the G-quadruplex structure of EBNA1 (in words, FID data): conclusion from Table 1. The class given is binding, Epstein-Barr virus. Here is the method: This assay is based on the displacement of a fluorescent indicator (Thiazole Orange, hereinafter TO) from a G4-RNA structure (RNA G-quadruplex of EBNA1) by a putative ligand such as the compounds of the invention (see FIG. 1). This displacement is quantified as % TO displacement. The percentage of TO displacement is calculated from the fluorescence intensity (F) in the presence of a putative ligand, using:
[formula] where F0 is fluorescence intensity of the probe (TO) bound to RNA without added ligand. The percentage of displacement is then plotted as a function of the concentration of added ligand. The RNA affinity of putative ligands is evaluated using the concentration of a ligand required to decrease the fluorescence of the probe by 50% (noted DC50), which is determined graphically from non-linear fitting of the displacement curve. […] 2. Materials and Reagents
Thiazole Orange (TO) and cacodylic acid were purchased from Aldrich and used without further purification. The oligoribonucleotide EBNA1 [5′-r(GGGGCAGGAGCAGGAGGA)-3′] (SEQ ID no 1) purified by reversed-phase HPLC was purchased from Eurogentec.
Stock solutions of the ligands (2 mM in DMSO (dimethylsulfoxyde)) were used for G4-FID assay, unless otherwise stated, and were stored at −20° C. Stock solutions of TO (2 mM in DMSO) were used for G4-FID assay. Fluorescent probe powders and solutions were stored and used, protected from light and used as aliquots to avoid freeze-thaw cycles. HT-G4-FID measurements were performed on a FLUOstar Omega microplate reader (BMG Labtech) with 96-well Non-Binding Surface black with black bottom polystyrene microplates (Corning ref 3650).
For HT-G4-FID assay, the oligonucleotide was dissolved in K^+−100-buffer (10 mM lithium cacodylate, pH 7.3, 100 mM KCl, 1 mM EDTA, 1% DMSO). Oligonucleotide concentrations were determined on the basis of their absorbance at 260 nm. Prior to use, the oligonucleotide was pre-treated by heating at 95° C. for 5 min followed by a slow cooling to 25° C.
Each G4-FID assay is performed in a 96-well microplates. […] The microplate is filled with (a) K^+−100 solution (qs for 200 μL) (b) 10 μL of a solution of pre-folded oligonucleotides (5 μM) and TO (10 μM-2 eq) and (c) an extemporaneously prepared 5 μM ligand solution in K^+−100 buffer (0 to 100 μL along the line of the microplate, i.e., from column […]: 0, 0.125, 0.25, 0.375, 0.5, 0.625, 0.75, 1.0, 1.25, 1.5, 2.0 and 2.5 μM) (see Largy et al., Anal Bioanal Chem 2011, 400, 34193427). After 5 min of orbital shaking at 500 rpm, fluorescence intensity is measured using the following experimental parameters: positioning delay: 0.5 s, 20 flashes per well, emission/excitation filters (nm): 485/520, gain adjusted at 80% of the fluorescence from the most fluorescent well (i.e., a well from column A).
Results are shown in Table 1 below (lower DC50 values indicate higher affinity of compounds to the G4-RNA structure of EBNA1).

A further assay concerns quadruplex RNA F-EBNA1-T. The assay is described as follows: FRET-melting assay. Particulars: for ΔTm, ligand + 3 μM ds26 / ΔTm, ligand + 10 μM ds26 / ΔTm, ligand alone: F-EBNA1-T 0.2 μM, ligand 1.0 μM, K+10 buffer; for ΔTm, ligand + 3 μM ds26: competitor DNA ds26 3 μM (15 eq); for ΔTm, ligand + 10 μM ds26: competitor DNA ds26 10 μM (50 eq); for ΔTm, ligand alone: no competitor; for affinity for the G-quadruplex structure of EBNA1 (in words, FRET-melting data): conclusion from Table 2. The class given is binding, Epstein-Barr virus. The source says:
The FRET-melting assay is based on thermal denaturation of G4-ARN monitored by fluorescence due to the phenomenon of Förster Resonance Energy Transfer (FRET). This method uses quadruplex-forming RNA sequence dual-labeled with two different fluorophores: a donor (fluorescein, or FAM) and an acceptor (tetramethylrhodamine, or TAMRA). When RNA is folded into G-quadruplex (G4) structure, fluorescence of the donor fluorophore is weak due to strong energy transfer (FRET) to the neighboring acceptor fluorophore. Upon thermal denaturation, the quadruplex unfolds and the fluorophores are separated, leading to decrease of the FRET effect and increase of the fluorescence of the donor (see FIG. 2). By following the fluorescence of the donor as a function of temperature, a melting curve of the G-quadruplex RNA can be obtained, which allows determining the temperature of denaturation at which 50% of the quadruples is unfolded (T1, FIG. 3).
The FRET-melting assay allows assessing the affinity of small molecules (ligands) for the G4-RNA. The addition of a G4-ligand stabilizes the G-quadruplex structure and increases the denaturation temperature. The temperature of denaturation in the presence of ligands (T2) can be compared with that obtained in the absence of ligands (T1). The value of ΔTm (ΔTm=T2−T1) represents a measure of the affinity of the compounds of the invention (ligand). Generally, values of ΔTm>20° C. correspond to ligands of high affinity.
The dual-labeled oligoribonucleotide EBNA1 [5′-FAM-r(GGGGCAGGAGCAGGAGGA)-TAMRA-3′] (SEQ ID no 2) purified by reversed-phase HPLC was purchased from Eurogentec. The donor fluorophore was 6-carboxyfluorescein (FAM) and the acceptor fluorophore was 6-carboxytetramethylrhodamine (TAMRA).
Stock solutions of the ligands (2 mM in DMSO) were used for FRET-melting assay, unless otherwise stated, and were stored at −20° C. FRET-melting measurements are performed on 7900HT Fast Real-Time PCR System (Applied Biosystems) with Microamp Fast optical 96-well reaction plate (Applied Biosystems).
Preparation of Oligonucleotides For FRET-melting assay, oligoribonucleotide F-EBNA1-T was dissolved in K^+10 buffer (10 mM lithium cacodylate buffer, pH 7.3, supplemented with 10 mM KCl and 90 mM LiCl).
Prior to use, all oligonucleotides were pre-treated by heating at 95° C. for 5 min, then rapidly cooled to 4° C. to favor the intramolecular folding by kinetic trapping. Duplex-DNA ds26 (5′CAA-TCG-GAT-CGA-ATT-CGA-TCC-GAT-TG-3′) (SEQ ID no 3) was prepared by heating this self-complementary strand at 90° C. for 5 min in K^+10 buffer followed by a slow cooling over 6 h.
FRET-melting assay is performed in 96-well plates on real time PCR apparatus 7900HT Fast Real-Time PCR System using the heating ramp as follow: 5 min at 25° C., then increase of 0.5° C. every minute until 95° C. Each experimental condition was tested in duplicated in a volume of 25 μL for each sample. The 96-well plates (Applied Biosystems) were prepared by aliquoting the annealed RNA (24 μL of 0.21 μM solution in K^+10 buffer) into each well, followed by 1 μL of ligand solution (25 μM in K^+10 buffer). For competition experiments, duplex competitors were added to 200 nM quadruplex sequences at final concentrations of 3.0 μM (15 eq) and 10.0 μM (50 eq), with a total reaction volume of 25 μL, with the labeled oligoribonucleotide (0.2 μM) and the ligand (1.0 μM). Measurements were made with excitation at 492 nm and detection at 516 nm. The change in the melting temperature in the presence of 1.0 μM putative ligand, ΔTm (1.0 μM), was calculated from at least two experiments by subtraction of the blank from the averaged melting temperature of each compound (1.0 μM).
The results are shown in FIG. 4 and in Table 2 below (higher ΔTm values indicate higher affinity of the compounds to G4-RNA structure of EBNA1).

`O=C(NN=Cc1cc[n+](Cc2ccccc2)c2ccccc12)c1ccc2ccc3ccc(C(=O)NN=Cc4cc[n+](Cc5ccccc5)c5ccccc45)nc3c2n1.[Br-].[Br-]` [Compound 11c, N′^2,N′^9-Bis[(1-benzylquinolinium-4-yl)methylene]-1,10-phenanthroline-2,9-dicarbohydrazide bromide]: on G4-RNA EBNA1, the DC50 is 0.34 ± 0.02 µM and the “affinity for the G-quadruplex structure of EBNA1 (in words, FID data)” value was “particularly high affinity”. For the same compound, in the assay on quadruplex RNA F-EBNA1-T, the “ΔTm, ligand + 3 μM ds26” value was 20.3 ± 0.4 °C; the “ΔTm, ligand + 10 μM ds26” value was 17.0 ± 0.8 °C; the “ΔTm, ligand alone” value was 20.1 ± 0.3 °C; the “affinity for the G-quadruplex structure of EBNA1 (in words, FRET-melting data)” value (shortened to “affinity … (in words, FRET-melting data)”) was “particularly high affinity”.

`O=C(NN=Cc1cc[n+](Cc2ccccc2)c2ccccc12)c1cccc(C(=O)NN=Cc2cc[n+](Cc3ccccc3)c3ccccc23)n1.[Br-].[Br-]` [Compound 2c, N′^2,N′^6-Bis[(1-benzylquinolinium-4-yl)methylene]pyridine-2,6-dicarbohydrazide bromide]: on G4-RNA EBNA1, the DC50 came to 0.39 ± 0.02 µM and the “affinity for the G-quadruplex structure of EBNA1 (in words, FID data)” value is “particularly high affinity”. Besides, in the assay with quadruplex RNA F-EBNA1-T, the “ΔTm, ligand + 3 μM ds26” value was 11.4 ± 0.6 °C; the “ΔTm, ligand + 10 μM ds26” value amounted to 9.6 ± 0.2 °C; the “ΔTm, ligand alone” value amounted to 10.1 ± 0.9 °C.

As to `CC[n+]1cccc2cc(C=NNC(=O)c3ccc4ccc5ccc(C(=O)NN=Cc6ccc7c(ccc[n+]7CC)c6)nc5c4n3)ccc21.[I-].[I-]` [Compound 12b, N′^2,N′^9-Bis[(1-ethylquinolinium-6-yl)methylene]-1,10-phenanthroline-2,9-dicarbohydrazide iodide], the DC50 on G4-RNA EBNA1 amounted to 0.59 ± 0.03 µM. In addition, in the assay with quadruplex RNA F-EBNA1-T, the “ΔTm, ligand + 3 μM ds26” value came to 25.9 ± 0.4 °C; the “ΔTm, ligand + 10 μM ds26” value is 25.1 ± 0.8 °C; the “ΔTm, ligand alone” value came to 28.5 ± 1.1 °C; the “affinity … (in words, FRET-melting data)” value is listed as “particularly high affinity”.

Compound `O=C(NN=Cc1ccc2c(ccc[n+]2Cc2ccccc2)c1)c1ccc2ccc(C(=O)NN=Cc3ccc4c(ccc[n+]4Cc4ccccc4)c3)nc2n1.[Br-].[Br-]` [Compound 9c, N′^2,N′^7-Bis[(1-benzylquinolinium-6-yl)methylene]-1,8-naphthyridine-2,7-dicarbohydrazide bromide] returned a DC50 at G4-RNA EBNA1 of 1.09 ± 0.1 µM. In addition, in the assay on quadruplex RNA F-EBNA1-T, the “ΔTm, ligand + 3 μM ds26” value came out at 12.3 ± 0.4 °C; the “ΔTm, ligand + 10 μM ds26” value is 10.0 ± 1.7 °C; the “ΔTm, ligand alone” value was determined as 13.1 ± 0.6 °C.

Turning to `O=C(NN=Cc1ccc2c(ccc[n+]2Cc2ccccc2)c1)c1ccc2ccc3ccc(C(=O)NN=Cc4ccc5c(ccc[n+]5Cc5ccccc5)c4)nc3c2n1.[Br-].[Br-]` [Compound 12c, N′^2,N′^9-Bis[(1-benzylquinolinium-6-yl)methylene]-1,10-phenanthroline-2,9-dicarbohydrazide bromide], on G4-RNA EBNA1, the DC50 was 0.65 ± 0.06 µM. In the assay with quadruplex RNA F-EBNA1-T, the “ΔTm, ligand + 3 μM ds26” value is 25.0 ± 0.7 °C; the “ΔTm, ligand + 10 μM ds26” value amounted to 22.7 ± 1.5 °C; the “ΔTm, ligand alone” value came out at 25.3 ± 1.3 °C; the “affinity … (in words, FRET-melting data)” value was “particularly high affinity”.

In turn, `CC[n+]1cccc2cc(C=NNC(=O)c3ccc4ccc(C(=O)NN=Cc5ccc6c(ccc[n+]6CC)c5)nc4n3)ccc21.[I-].[I-]` [Compound 9b, N′^2,N′^7-Bis[(1-ethylquinolinium-6-yl)methylene]-1,8-naphthyridine-2,7-dicarbohydrazide iodide] showed a DC50 on G4-RNA EBNA1 of 0.8 ± 0.01 µM. In addition, in the assay with quadruplex RNA F-EBNA1-T, the “ΔTm, ligand + 3 μM ds26” value amounted to 10.3 ± 0.2 °C; the “ΔTm, ligand + 10 μM ds26” value came to 8.8 ± 0.2 °C; the “ΔTm, ligand alone” value was 11.8 ± 0.1 °C.

Turning to `O=C(NN=Cc1ccc2c(ccc[n+]2Cc2ccccc2)c1)c1cccc(C(=O)NN=Cc2ccc3c(ccc[n+]3Cc3ccccc3)c2)n1.[Br-].[Br-]` [Compound 3c, N′^2,N′^6-Bis[(1-benzylquinolinium-6-yl)methylene]pyridine-2,6-dicarbohydrazide bromide], on G4-RNA EBNA1, the DC50 came to 0.72 ± 0.03 µM. In addition, in the assay on quadruplex RNA F-EBNA1-T, the “ΔTm, ligand + 3 μM ds26” value turned out to be 12.2 ± 0.2 °C; the “ΔTm, ligand + 10 μM ds26” value was found to be 12.0 ± 0.2 °C; the “ΔTm, ligand alone” value turned out to be 10.4 ± 0.3 °C.

`CC[n+]1cccc2cc(C=NNC(=O)c3cccc(C(=O)NN=Cc4ccc5c(ccc[n+]5CC)c4)n3)ccc21.[I-].[I-]` [Compound 3b, N′^2,N′^6-Bis[(1-ethylquinolinium-6-yl)methylene]pyridine-2,6-dicarbohydrazide iodide] registered a DC50 at G4-RNA EBNA1 of 0.74 ± 0.03 µM. For the same compound, in the assay with quadruplex RNA F-EBNA1-T, the “ΔTm, ligand + 3 μM ds26” value came out at 7.6 ± 0.5 °C; the “ΔTm, ligand + 10 μM ds26” value was 7.4 ± 0.3 °C; the “ΔTm, ligand alone” value was found to be 5.9 ± 0.1 °C.
